pIC50: −log10 of the molar value. Calls of active or inactive are those of the source. No cut-off for these calls is given here.
Key:
Assay type in all cases: functional, cell-based
HCT-116 [1] = experiment: Antiproliferative activity against human HCT116 cells at 50 uM after 24 hrs by CCK-8 assay
HeLa [2] = experiment: Antiproliferative activity against human HeLa cells at 50 uM after 24 hrs by CCK-8 assay
MCF7 [3] = experiment: Antiproliferative activity against human MCF7 cells at 50 uM after 24 hrs by CCK-8 assay
T-24 [4] = experiment: Antiproliferative activity against human T24 cells at 50 uM after 24 hrs by CCK-8 assay
SH-SY5Y [5] = experiment: Antiproliferative activity against human SH-SY5Y cells at 50 uM after 24 hrs by CCK-8 assay
A549 [6] = experiment: Antiproliferative activity against human A549 cells at 50 uM after 24 hrs by CCK-8 assay
T-24 [7] = experiment: Antiproliferative activity against human T24 cells after 24 hrs by CCK-8 assay; details: T-24, 24 h
MCF7 [8] = experiment: Antiproliferative activity against human MCF7 cells after 24 hrs by CCK-8 assay; details: MCF7, 24 h
A549 [9] = experiment: Antiproliferative activity against human A549 cells after 24 hrs by CCK-8 assay; details: A549, 24 h
SH-SY5Y [10] = experiment: Antiproliferative activity against human SH-SY5Y cells after 24 hrs by CCK-8 assay
HeLa [11] = experiment: Antiproliferative activity against human HeLa cells after 24 hrs by CCK-8 assay
HCT-116 [12] = experiment: Antiproliferative activity against human HCT116 cells after 24 hrs by CCK-8 assay; details: HCT-116, 24 h

| pIC50 (MCF7 [8]) | pIC50 (A549 [9]) | pIC50 (SH-SY5Y [10]) | pIC50 (HeLa [11]) | pIC50 (HCT-116 [12]) | SMILES | Activity (HCT-116 [1]) | Activity (HeLa [2]) | Activity (MCF7 [3]) | Activity (T-24 [4]) | Activity (SH-SY5Y [5]) | Activity (A549 [6]) | pIC50 (T-24 [7]) |
| --- | --- | --- | --- | --- | --- | --- | --- | --- | --- | --- | --- | --- |
| – | – | – | – | – | COc1ccc([C@]2(O)C(=O)[C@@]3(OC)OC2[C@@H](O)[C@@]3(O)c2ccc(OC)cc2)cc1 | inactive | inactive | inactive | inactive | inactive | inactive | – |
| – | – | – | – | – | COc1ccc([C@]23O[C@](c4ccc(OC)cc4)([C@@H](O)[C@@H]2O)[C@@H](O)[C@@H]3O)cc1 | inactive | inactive | inactive | inactive | inactive | inactive | – |
| 4.37 | 4.64 | 5.03 | 4.71 | 4.24 | COc1ccc([C@]23O[C@@H]4C2O[C@](OC)([C@H]3O)[C@]4(O)c2ccc(O)cc2)cc1 | – | – | – | – | – | – | 4.33 |
| – | – | – | – | – | COc1ccc([C@]2(O)[C@H](O)C(=O)[C@@](O)(c3ccc(OC)cc3)[C@H](O)[C@H]2O)cc1 | inactive | inactive | inactive | inactive | inactive | inactive | – |
